Assay results published in US9931373B2, “Method of reducing cancer cell proliferation by administering recombinant alpha-fetoprotein” (priority 2005, dated 2018).
Each block holds one molecule with its values, some of them ahead of it.

Key:
[1] = system: Human breast cancer cells MCF-7; assay: Combined treatment of MCF-7 cells with chemotherapeutic agents and rhAFP, MTT or H3-thymidine; format: cell-based; details: MCF-7, 72 hrs, agent with addition of 0.1 mg/ml of rhAFP, suboptimal doses, FIG. 8
Protocol: Cell proliferation was assessed by H3-thymidine incorporation assay or by MTT technique.
Human breast cancer cells MCF-7 were plated onto 96-well plastic wells (Costar) in 10^4 cells/ml in DMEM medium with addition of 2% fetal calf serum and were treated during 72 hrs with one of chemotherapeutic agents: doxorubicin, cysplatin, etoposide, metatrexate or those with addition of 0.1 mg/ml of rhAFP. Cytotoxic effect was estimated by MTT assay or H3-thymidine incorporation assay. It was observed synergistic enhance of the total tumor-suppressive effect in suboptimal doses of all agents in the presence of AFP (FIG. 8).

[2] = system: syngeneic leukemia cells P388; assay: Syngeneic acute leukemia P388 in BDF1 mice, survival over 30 days; format: in vivo; details: for T (survival, days): single injection
Source text: We have studied the effect of combined treatment with AFP+Dox of acute leukemia in mice BDF1 with transplanted intrapleurally syngeneic P388 leukemia cells. BDF-1 mice (84 male, 28 mice per treatment) were implanted with lethal dose of 12×10^6 syngeneic leukemia cells P388 in the pleural region. Animals were subjected to monotherapy with Dox and combined therapy with rhAFP/Dox upon simultaneous single injection of drugs in various doses. Animal survival was compared over 30 days.

tumor cells = assay: Combined administration of rhAFP and plant-derived compounds, suppression of tumor cell growth; format: cell-based; details: FIG. 12B, C
rhAFP = biological target: T1, rhAFP (Homo sapiens, UniProt P02771); assay: Formation of noncovalent complexes with rhAFP, absorption spectra and Sephadex G-25; format: binding; details: steady-state absorption; curcumin 30 μM, rhAFP 5 μM to 40 μM, FIG. 12A
T1 construct: pre-pro secretion region of yeast MFalpha1 (secretion leader, removed on secretory processing) (N, cleaved yes); made in house; host or cells: Saccharomyces cerevisiae YBS723/pKX (secreted into the culture liquid)
T1 sequence (P02771 20-609): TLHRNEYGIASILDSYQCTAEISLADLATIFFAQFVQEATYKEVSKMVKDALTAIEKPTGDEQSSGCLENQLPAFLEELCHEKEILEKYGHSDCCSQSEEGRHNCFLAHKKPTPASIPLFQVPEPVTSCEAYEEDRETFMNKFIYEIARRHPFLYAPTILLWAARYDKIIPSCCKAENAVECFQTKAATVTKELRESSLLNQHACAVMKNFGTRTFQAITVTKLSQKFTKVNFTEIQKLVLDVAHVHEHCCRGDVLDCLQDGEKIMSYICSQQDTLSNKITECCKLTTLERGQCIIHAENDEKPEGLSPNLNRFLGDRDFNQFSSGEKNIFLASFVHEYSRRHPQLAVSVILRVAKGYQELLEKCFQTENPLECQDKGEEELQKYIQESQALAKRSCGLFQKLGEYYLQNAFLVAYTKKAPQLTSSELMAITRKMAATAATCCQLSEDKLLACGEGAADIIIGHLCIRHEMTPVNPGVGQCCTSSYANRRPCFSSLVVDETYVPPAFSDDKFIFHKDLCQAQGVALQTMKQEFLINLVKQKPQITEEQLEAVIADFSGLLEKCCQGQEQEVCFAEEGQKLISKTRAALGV
Protocol: Absorption spectra of aqueous solutions containing 30 μM of curcumin and various doses of rhAFP: (1) 30 μM of curcumin; (2) 30 μM of curcumin+20 μM rhAFP; (3) 30 μM of curcumin+40 μM rhAFP. Panel at the top (A): absorption spectra of non-covalent complex of rhAFP/curcumin after chromatography through a column with Sephadex G-25.
Phytochemicals are nonnutritive components of plants that are currently being studies in chemoprevention and combined therapy of cancer. […] Other plant-derived tumoricidal compounds—flavonoids, isoflavonoids, flavons, flavanones, isoflavanones have been widely investigated for their ability to suppress tumor growth in vitro. Some of them display significant homology with steroids and mimic reveal antagonistic or agonistic activity in mammals. Ability of AFP to bind isoflavanoids was documented by various researches (Deutsch H. F, 1991, Adv. Canc. Res. 56, 253-312). […] The absorption spectra of solutions containing curcumin and rhAFP were followed keeping concentration of curcumin constant 30 μM and rhAFP varied from 5 μM to 40 μM. […] FIG. 12A gives the absorption spectral changes in curcumin in the presence of rhAFP in the wavelength range of 250-550 nm. […] Whereas after addition of rhAFP the maximum of absorbance of curcumin blue-shifted from 426 to 350 nm (curve 3). […]

[3] = system: cells of B-cellular lymphoma Raji; assay: Suppression of growth of Raji cells in vitro, [H3]-thymidine incorporation; format: cell-based, human; details: 12 hours with AFP, dose-dependent, FIG. 5
Protocol: The functional activity of rAFP and the modified forms thereof were determined according to its capability of suppressing the growth of cells of B-cellular lymphoma Raji in the culture in vitro, as earlier described (Semenkova, L. 1997, Tumor Biol. 18, 261-274; Dudich E. I., et al., 1998, Tumor Biol. 198, 30-40). Preliminarily washed by a fresh medium, Raji cells were placed into each cell of a 96-alverolar plate according to 5×10^3 in 0.1 ml of a medium RPMI-1640 in the presence of a 10% fetal calf serum, then different doses of AFP were added for 12 hours. Proliferation of the cells was measured by a standard method by the introduction of [H^3]-thymidine during the last 4 hours of culturing. For comparison, the dose-dependent reactivity was studies for two samples of AFP of embryonal origin embrAFP and yeast rAFP (FIG. 5). […] Similarly, in order to determine the activity to preparations on the base of AFP in vitro, any other lines of cancer cells may be used that are sensitive to the suppressive action of AFP, such as human hepatocarcinoma HepG2, breast cancer MCF-7, prostate cancer LnCap, myeloblastoma U-937 and others (Semenkova, L. 1997, Tumor Biol. 18, 261-274; Dudich E. I., et al., 1998, Tumor Biol. 198, 30-40).

Molecule: COc1cccc2c1C(=O)c1c(O)c3c(c(O)c1C2=O)C[C@@](O)(C(=O)CO)C[C@@H]3O[C@H]1C[C@H](N)[C@H](O)[C@H](C)O1 [Dox, doxorubicin]
total tumor-suppressive effect of agent together with rhAFP [1]: significant synergistic tumor-suppression
Survival more 30 days ([2]; Dox 3.0 mg/kg): 0
T/C % ([2]; Dox 3.0 mg/kg): 303%
T (survival, days) ([2]; Dox 3.0 mg/kg): [13.9/17.1] 19.7 days
Survival more 30 days ([2]; Dox 5.0 mg/kg): 0
T/C % ([2]; Dox 5.0 mg/kg): 315%
T (survival, days) ([2]; Dox 5.0 mg/kg): [17.0/22.4] 20.5 days
Survival more 30 days ([2]; Dox 1.o mg/kg): 0
T/C % ([2]; Dox 1.o mg/kg): 238%
T (survival, days) ([2]; Dox 1.o mg/kg): 6.5 [6.2/6.8] 15.5 days

formation of noncovalent complexes with rhAFP (rhAFP): form noncovalent complexes
Molecule: COc1cc(/C=C/C(=O)CC(=O)/C=C/c2ccc(O)c(OC)c2)ccc1O [curcumin]
total tumor suppressive effect upon combined treatment with rhAFP (tumor cells): significant enhance of the total tumor suppressive effect

Molecule: N.N.[Cl][Pt][Cl] [cysplatin]
total tumor-suppressive effect of agent together with rhAFP [1]: significant synergistic tumor-suppression

Molecule: COc1cc([C@@H]2c3cc4c(cc3[C@@H](O[C@@H]3O[C@@H]5CO[C@@H](C)O[C@H]5[C@H](O)[C@H]3O)[C@H]3COC(=O)[C@H]23)OCO4)cc(OC)c1O [etoposide]
total tumor-suppressive effect of agent together with rhAFP [1]: significant synergistic tumor-suppression

formation of noncovalent complexes with rhAFP (rhAFP): form noncovalent complexes
Molecule: O=c1c(-c2ccc(O)cc2)coc2cc(O[C@@H]3O[C@H](CO)[C@@H](O)[C@H](O)[C@H]3O)cc(O)c12 [genistin]
total tumor suppressive effect upon combined treatment with rhAFP (tumor cells): significant enhance of the total tumor suppressive effect

Molecule: CN(Cc1cnc2nc(N)nc(N)c2n1)c1ccc(C(=O)N[C@@H](CCC(=O)O)C(=O)O)cc1 [metatrexate]
total tumor-suppressive effect of agent together with rhAFP [1]: significant synergistic tumor-suppression

B1: embrAFP: purified AFP of embryonal origin, obtained from embryonic serum (protein, UniProt P02771 19-609, looked up)
Alpha-fetoprotein: RTLHRNEYGIASILDSYQCTAEISLADLATIFFAQFVQEATYKEVSKMVKDALTAIEKPTGDEQSSGCLENQLPAFLEELCHEKEILEKYGHSDCCSQSEEGRHNCFLAHKKPTPASIPLFQVPEPVTSCEAYEEDRETFMNKFIYEIARRHPFLYAPTILLWAARYDKIIPSCCKAENAVECFQTKAATVTKELRESSLLNQHACAVMKNFGTRTFQAITVTKLSQKFTKVNFTEIQKLVLDVAHVHEHCCRGDVLDCLQDGEKIMSYICSQQDTLSNKITECCKLTTLERGQCIIHAENDEKPEGLSPNLNRFLGDRDFNQFSSGEKNIFLASFVHEYSRRHPQLAVSVILRVAKGYQELLEKCFQTENPLECQDKGEEELQKYIQESQALAKRSCGLFQKLGEYYLQNAFLVAYTKKAPQLTSSELMAITRKMAATAATCCQLSEDKLLACGEGAADIIIGHLCIRHEMTPVNPGVGQCCTSSYANRRPCFSSLVVDETYVPPAFSDDKFIFHKDLCQAQGVALQTMKQEFLINLVKQKPQITEEQLEAVIADFSGLLEKCCQGQEQEVCFAEEGQKLISKTRAALGV
cytostatic activity, inhibition of growth of Raji cells [3]: expressed cytostatic activity
